Broadly, the IC50 is the concentration that gives 50% inhibition.

We go through two compounds from patent US20060127914A1 (priority 1999, published 2006).

In one assay the target is T1, α9/α10 combination (Homo sapiens, UniProt Q9GZZ6+Q9UGM1, N442S).
T1 construct: expressed in transfected cells; host or cells: Xenopus laevis oocytes injected with cRNA made from cDNAs in pSP64T.GL+
The assay can be described thus: Two electrode voltage clamp recording in Xenopus oocytes injected with α9 plus α10. It counts as cell-based. On the procedure:
(§1) 5 minutes washout time was allowed between each response. The data is corrected for run-up or run-down and expressed as a percentage of the maximum evoked current. Curves have been fitted using the non-linear curve fitting routine of Graph Pad. The fit is constrained to a lower bound of 0 while the upper bound is unconstrained. The correlation coefficients are R^2=0.9999 and 0.9980 for α9 and α9/α10, respectively.
(§2) Xenopus laevis females were purchased from Blades Biological, UK. The animals were maintained and dissected as described in Gould (1994) Membrane Protein and Expression Systems: a User's Guide Portland Press, London. Stage V or VI oocytes were de-folliculated by incubating with 0.2% collagenase (Sigma) in calcium-free Barth's solution on a vibrating platform set at 8 Hz for 2 hours at 18° C. Oocytes were then maintained in normal Barth's solution (containing 160 IU/ml penicillin and 74 IU/ml streptomycin). On the following day oocytes were injected with 1 to 25 ng cRNA using a Drummond Nanoject and left for at least three days before recording. cRNA was synthesised from cDNAs previously subcloned into the pSP64T.GL+ vector using the SP6 Message Machine Kit (Ambion).
(§3) Two electrode voltage clamp recording was carried out using a TURBO TEC-10CD (NPI Electronic GmbH, D-71732 Tamm, Germany). For current recording oocytes were placed in ND-96 Ringer (containing 96 mM NaCl, 1.8 mM CaCl2, 2 mM KCl, 1 mM MgCl2 and 5 mM HEPES (pH=7.4)) and impaled with two electrodes filled with 3 M KCl and 1 to 2 MΩ tip resistance. Recording were made in oocytes in which the membrane potential stabilised to potentials more negative than −20 mV during a 20 minute stabilisation period.
(§4) α10 nAChR function and pharmacology was investigated in Xenopus oocytes using two electrode voltage clamp techniques.
A general note: Two-electrode voltage clamp is typically applied to oocytes expressing channels or transporters.

Assay [1] has as its target T2, α9 alone (homomeric α9 nAChR) (Homo sapiens, UniProt Q9UGM1, N442S).
T2 construct: expressed in transfected cells; host or cells: Xenopus laevis oocytes injected with cRNA made from cDNA in pSP64T.GL+
Kind of assay: Two electrode voltage clamp recording in Xenopus oocytes injected with α9 alone. In kind it is cell-based. On the procedure:
as §1, §2, §3, §4

Where [2] appears, read: read-out: IC50 for inhibition of ACh-evoked response.

T1 sequence (Q9GZZ6 25-450): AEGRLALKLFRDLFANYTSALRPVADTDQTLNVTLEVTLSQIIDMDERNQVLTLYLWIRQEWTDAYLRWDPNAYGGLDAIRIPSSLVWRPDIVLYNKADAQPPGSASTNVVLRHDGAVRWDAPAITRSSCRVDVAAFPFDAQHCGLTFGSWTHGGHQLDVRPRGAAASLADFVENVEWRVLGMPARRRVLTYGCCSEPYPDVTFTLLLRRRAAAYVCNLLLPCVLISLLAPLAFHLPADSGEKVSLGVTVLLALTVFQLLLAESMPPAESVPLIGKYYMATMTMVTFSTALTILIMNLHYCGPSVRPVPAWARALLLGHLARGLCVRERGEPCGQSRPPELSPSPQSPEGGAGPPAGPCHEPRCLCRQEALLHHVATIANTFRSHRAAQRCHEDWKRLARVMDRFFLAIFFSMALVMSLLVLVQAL
T1 sequence (Q9UGM1 23-479 N442S): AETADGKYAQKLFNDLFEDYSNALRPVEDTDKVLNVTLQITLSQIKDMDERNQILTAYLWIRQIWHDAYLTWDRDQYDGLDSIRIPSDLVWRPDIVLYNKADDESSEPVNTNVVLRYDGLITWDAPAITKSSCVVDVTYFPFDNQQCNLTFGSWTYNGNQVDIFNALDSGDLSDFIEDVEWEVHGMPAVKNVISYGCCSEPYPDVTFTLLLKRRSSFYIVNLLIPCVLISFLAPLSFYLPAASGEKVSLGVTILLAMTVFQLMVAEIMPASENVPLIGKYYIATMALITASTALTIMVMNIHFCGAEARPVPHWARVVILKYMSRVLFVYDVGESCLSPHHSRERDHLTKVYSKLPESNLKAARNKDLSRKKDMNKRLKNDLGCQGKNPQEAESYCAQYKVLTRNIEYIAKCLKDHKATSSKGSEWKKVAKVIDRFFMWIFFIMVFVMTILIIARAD
T2 sequence (Q9UGM1 23-479 N442S): as above

Regarding `CC(=O)OCC[N+](C)(C)C` [ACh, acetylcholine], the “proportional increase in area-under-the curve for normalised responses” value on α9/α10 combination (30 s ACh application compared to 10 s application, α9/α10, N=2) was found to be 44%; in assay [1] (30 s ACh application compared to 10 s application, α9 alone, N=2), 82%.
As to α-bungarotoxin [α-Btx], the “Hill coefficient of inhibition curve” value at α9/α10 combination is on record as −0.89; in assay [1] it was −1.25. For the same compound, the concentration for half-maximal inhibition (IC50) at α9/α10 combination (setting [2]) worked out at 3.7 nM; in assay [1] (setting [2]), 2.7 nM.
